The subject of series [1] is human airway epithelial cells (HAECs). As to the kind of experiment: High-throughput sequencing (HTS) of miRNAs at four stages of differentiation of HAECs. The note with it: for Modulation (ratio of the level of intensity of expression in log2 in two stages of differentiation) measured by high-throughput sequencing, D7 − D0 / Modulation (ratio of the level of intensity of expression in log2 in two stages of differentiation) measured by high-throughput sequencing, FC − D7 / Modulation (ratio of the level of intensity of expression in log2 in two stages of differentiation) measured by high-throughput sequencing, WD − D0 / Modulation (ratio of the level of intensity of expression in log2 in two stages of differentiation) measured by high-throughput sequencing, WD − FC / Level of intensity of expression in log2 measured by high-throughput sequencing, D0 / Level of intensity of expression in log2 measured by high-throughput sequencing, D7 / Level of intensity of expression in log2 measured by high-throughput sequencing, FC / Level of intensity of expression in log2 measured by high-throughput sequencing, WD: Table VI; for Level of intensity of expression in log2 At the differentiated stage (WD) measured in HTS: healthy human airway epithelial tissue; for Level of intensity of expression in log2 measured by high-throughput sequencing, D0: stage D0; for Level of intensity of expression in log2 measured by high-throughput sequencing, D7: stage D7; for Level of intensity of expression in log2 measured by high-throughput sequencing, FC: stage FC; for Level of intensity of expression in log2 At the differentiated stage (WD) measured in HTS / Level of intensity of expression in log2 measured by high-throughput sequencing, WD: stage WD. In a few lines:
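ALI cultures sampled at day 0, day 7, first-cilia stage (~14 d) and full differentiation (~21 d). Trizol lysis, column purification retaining small RNAs. Adaptor ligation, RT at 42° C for 30 min, PCR, gel selection of ~105-150 base products.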

For series [2] the test system is unchanged. As to the kind of experiment: Agilent miRNA chips, miRNA expression at four stages of differentiation of HAECs. The note with it: for Modulation (ratio of the level of intensity of expression in log2 in two stages of differentiation) measured with the Agilent chips, D7 − D0 / Modulation (ratio of the level of intensity of expression in log2 in two stages of differentiation) measured with the Agilent chips, FC − D7 / Modulation (ratio of the level of intensity of expression in log2 in two stages of differentiation) measured with the Agilent chips, WD − D0 / Modulation (ratio of the level of intensity of expression in log2 in two stages of differentiation) measured with the Agilent chips, WD − FC / Level of intensity of expression in log2 measured with the Agilent chips, D0 / Level of intensity of expression in log2 measured with the Agilent chips, D7 / Level of intensity of expression in log2 measured with the Agilent chips, FC / Level of intensity of expression in log2 measured with the Agilent chips, WD: Table VI; for Modulation (ratio of the level of intensity of expression in log2 at two stages of differentiation), FC − D7 / Modulation (ratio of the level of intensity of expression in log2 at two stages of differentiation), WD − FC: Agilent miRNA chips, Table V; for Level of intensity of expression in log2 measured with the Agilent chips, D0: stage D0; for Level of intensity of expression in log2 measured with the Agilent chips, D7: stage D7; for Level of intensity of expression in log2 measured with the Agilent chips, FC: stage FC; for Level of intensity of expression in log2 measured with the Agilent chips, WD: stage WD. In a few lines: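 RNA from the same patients' HAECs at four differentiation stages was labelled and hybridized with the Agilent miRNA labeling and hybridization kit. Chips were Human miRNA Microarray v2, with 866 human and 89 viral miRNAs (miRBase v12.0). Profiles were compared with high-throughput sequencing data.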

Series [3] concerns basal cells and pyramidal cells of the airway epithelium. As to the kind of experiment: miRNA expression in sorted basal cells versus pyramidal cells (ciliated + secretory), HTS and Agilent chips. Also noted: species or system human. The settings on record: for Modulation of expression of the miRNAs in pyramidal cells (323(−)) relative to basal cells 323(+): HTS and Agilent chips; for Intensity of the level of expression in log2 in pyramidal cells (323(−)): pyramidal cells (ciliated + secretory). In a few lines:
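FACS on CD151 and tissue factor: double-positive = basal, double-negative = ciliated + mucus cells; DAPI, doublets, aggregates excluded; sort at 5000 events/s. Purity checked by cytometry/immunocytochemistry. miRNA by Agilent array or HTS on total RNA. Source: nasal polyps/conchae, 3 donors.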

For “hsa-let-7e: human miRNA, SEQ ID No. 160 (UGAGGUAGGAGGUUGUAUAGUU; expressed or natural sequence; listed as Homo sapiens)”, in series [1], the “Modulation (ratio of the level of intensity of expression in log2 in two stages of differentiation) measured by high-throughput sequencing, D7 − D0” value was 0.38 log2; the “Modulation (ratio of the level of intensity of expression in log2 in two stages of differentiation) measured by high-throughput sequencing, FC − D7” value is −0.27 log2; the “Modulation (ratio of the level of intensity of expression in log2 in two stages of differentiation) measured by high-throughput sequencing, WD − D0” value is 0.18 log2; the “Modulation (ratio of the level of intensity of expression in log2 in two stages of differentiation) measured by high-throughput sequencing, WD − FC” value came out at 0.07 log2. Besides, in series [1], the “Level of intensity of expression in log2 At the differentiated stage (WD) measured in HTS” value worked out at 7.60 log2; the “Level of intensity of expression in log2 measured by high-throughput sequencing, D0” value stood at 7.42 log2; the “Level of intensity of expression in log2 measured by high-throughput sequencing, D7” value was 7.80 log2; the “Level of intensity of expression in log2 measured by high-throughput sequencing, FC” value turned out to be 7.53 log2. The “Level of intensity of expression in log2 measured by high-throughput sequencing, WD” value in series [1] came to 7.60 log2. For the same substance, in series [2], the “Modulation (ratio of the level of intensity of expression in log2 in two stages of differentiation) measured with the Agilent chips, D7 − D0” value is 1.38 log2; the “Modulation (ratio of the level of intensity of expression in log2 at two stages of differentiation), FC − D7” value is recorded as −0.57 log2; the “Modulation (ratio of the level of intensity of expression in log2 in two stages of differentiation) measured with the Agilent chips, FC − D7” value is −0.57 log2; the “Modulation (ratio of the level of intensity of expression in log2 in two stages of differentiation) measured with the Agilent chips, WD − D0” value is 0.95 log2. Further, in series [2], the “Modulation (ratio of the level of intensity of expression in log2 at two stages of differentiation), WD − FC” value is 0.15 log2; the “Modulation (ratio of the level of intensity of expression in log2 in two stages of differentiation) measured with the Agilent chips, WD − FC” value is 0.15 log2; the “Level of intensity of expression in log2 measured with the Agilent chips, D0” value amounted to 8.53 log2; the “Level of intensity of expression in log2 measured with the Agilent chips, D7” value stood at 9.91 log2. In addition, in series [2], the “Level of intensity of expression in log2 measured with the Agilent chips, FC” value came out at 9.34 log2 and the “Level of intensity of expression in log2 measured with the Agilent chips, WD” value is reported as 9.48 log2. Besides, in series [3], the “Modulation of expression of the miRNAs in pyramidal cells (323(−)) relative to basal cells 323(+)” value is −1.42, the “Intensity of the level of expression in log2 in basal cells (323(+))” value (“Intensity … in log2 in basal cells (323(+))” below) is listed as 8.24 log2 and the “Intensity of the level of expression in log2 in pyramidal cells (323(−))” value (“Intensity … in log2 in pyramidal cells (323(−))” for short) is on record as 6.82 log2.
With “hsa-miR-96: human miRNA, SEQ ID No. 51 (UUUGGCACUAGCACAUUUUUGCU; expressed or natural sequence; listed as Homo sapiens)”, in series [1], the “Modulation (ratio of the level of intensity of expression in log2 in two stages of differentiation) measured by high-throughput sequencing, D7 − D0” value is −0.08 log2; the “Modulation (ratio of the level of intensity of expression in log2 in two stages of differentiation) measured by high-throughput sequencing, FC − D7” value was −0.71 log2; the “Modulation (ratio of the level of intensity of expression in log2 in two stages of differentiation) measured by high-throughput sequencing, WD − D0” value came to 0.02 log2; the “Modulation (ratio of the level of intensity of expression in log2 in two stages of differentiation) measured by high-throughput sequencing, WD − FC” value is recorded as 0.81 log2. For the same substance, in series [1], the “Level of intensity of expression in log2 At the differentiated stage (WD) measured in HTS” value was found to be 12.65 log2; the “Level of intensity of expression in log2 measured by high-throughput sequencing, D0” value is listed as 5.41 log2; the “Level of intensity of expression in log2 measured by high-throughput sequencing, D7” value worked out at 5.33 log2; the “Level of intensity of expression in log2 measured by high-throughput sequencing, FC” value amounted to 4.62 log2. The “Level of intensity of expression in log2 measured by high-throughput sequencing, WD” value in series [1] came to 5.43 log2. Also, in series [2], the “Modulation (ratio of the level of intensity of expression in log2 in two stages of differentiation) measured with the Agilent chips, D7 − D0” value was determined as 1.19 log2; the “Modulation (ratio of the level of intensity of expression in log2 at two stages of differentiation), FC − D7” value was −0.50 log2; the “Modulation (ratio of the level of intensity of expression in log2 in two stages of differentiation) measured with the Agilent chips, FC − D7” value is given as −0.50 log2; the “Modulation (ratio of the level of intensity of expression in log2 in two stages of differentiation) measured with the Agilent chips, WD − D0” value was determined as 0.64 log2. For the same substance, in series [2], the “Modulation (ratio of the level of intensity of expression in log2 at two stages of differentiation), WD − FC” value was −0.04 log2; the “Modulation (ratio of the level of intensity of expression in log2 in two stages of differentiation) measured with the Agilent chips, WD − FC” value is listed as −0.04 log2; the “Level of intensity of expression in log2 measured with the Agilent chips, D0” value is listed as 8.52 log2; the “Level of intensity of expression in log2 measured with the Agilent chips, D7” value was determined as 9.71 log2. Moreover, in series [2], the “Level of intensity of expression in log2 measured with the Agilent chips, FC” value was 9.21 log2 and the “Level of intensity of expression in log2 measured with the Agilent chips, WD” value stood at 9.16 log2. Besides, in series [3], the “Modulation of expression of the miRNAs in pyramidal cells (323(−)) relative to basal cells 323(+)” value was −1.51, the “Intensity … in log2 in basal cells (323(+))” value is 6.81 log2 and the “Intensity … in log2 in pyramidal cells (323(−))” value turned out to be 5.30 log2.
With “hsa-miR-574-3p: human miRNA, SEQ ID No. 48 (CACGCUCAUGCACACACCCACA; expressed or natural sequence; listed as Homo sapiens)”, in series [1], the “Modulation (ratio of the level of intensity of expression in log2 in two stages of differentiation) measured by high-throughput sequencing, D7 − D0” value was found to be 0.48 log2; the “Modulation (ratio of the level of intensity of expression in log2 in two stages of differentiation) measured by high-throughput sequencing, FC − D7” value is reported as 0.12 log2; the “Modulation (ratio of the level of intensity of expression in log2 in two stages of differentiation) measured by high-throughput sequencing, WD − D0” value was determined as 0.92 log2; the “Modulation (ratio of the level of intensity of expression in log2 in two stages of differentiation) measured by high-throughput sequencing, WD − FC” value was 0.32 log2. For the same substance, in series [1], the “Level of intensity of expression in log2 At the differentiated stage (WD) measured in HTS” value worked out at 13.42 log2; the “Level of intensity of expression in log2 measured by high-throughput sequencing, D0” value is given as 13.64 log2; the “Level of intensity of expression in log2 measured by high-throughput sequencing, D7” value is given as 14.12 log2; the “Level of intensity of expression in log2 measured by high-throughput sequencing, FC” value worked out at 14.24 log2. For the same substance, in series [1], the “Level of intensity of expression in log2 measured by high-throughput sequencing, WD” value is 14.56 log2. Further, in series [1] (HTS), the “Modulation (ratio of the level of intensity of expression in log2 in two stages of differentiation), D7 − D0” value amounted to 0.48 log2; the “Modulation (ratio of the level of intensity of expression in log2 in two stages of differentiation), FC − D7” value came to 0.12 log2; the “Modulation (ratio of the level of intensity of expression in log2 in two stages of differentiation), WD − FC” value is on record as 0.32 log2. Moreover, the “Abundance (%), D0” value in series [1] (HTS, ALI-D0) is recorded as 2.80%. Besides, the “Abundance (%), D7” value in series [1] (HTS, ALI-D7) came out at 3.92%. Further, the “Abundance (%), FC” value in series [1] (HTS, ALI-FC) worked out at 4.12%. Also, the “Abundance (%), WD” value in series [1] (HTS, ALI-WD) was determined as 3.90%. Moreover, in series [2], the “Modulation (ratio of the level of intensity of expression in log2 in two stages of differentiation) measured with the Agilent chips, D7 − D0” value worked out at 1.69 log2; the “Modulation (ratio of the level of intensity of expression in log2 in two stages of differentiation) measured with the Agilent chips, FC − D7” value was −0.46 log2; the “Modulation (ratio of the level of intensity of expression in log2 in two stages of differentiation) measured with the Agilent chips, WD − D0” value stood at 1.04 log2; the “Modulation (ratio of the level of intensity of expression in log2 in two stages of differentiation) measured with the Agilent chips, WD − FC” value is on record as −0.18 log2. In series [2], the “Level of intensity of expression in log2 measured with the Agilent chips, D0” value worked out at 4.73 log2; the “Level of intensity of expression in log2 measured with the Agilent chips, D7” value was found to be 6.42 log2; the “Level of intensity of expression in log2 measured with the Agilent chips, FC” value came out at 5.96 log2; the “Level of intensity of expression in log2 measured with the Agilent chips, WD” value is 5.77 log2. Further, in series [3], the “Modulation of expression of the miRNAs in pyramidal cells (323(−)) relative to basal cells 323(+)” value was 0.91, the “Intensity … in log2 in basal cells (323(+))” value was found to be 3.53 log2 and the “Intensity … in log2 in pyramidal cells (323(−))” value is listed as 4.44 log2.

These data come from patent publication US9023821B2, “Use of MicroRNA for treating diseases associated with a dysfunction of the cilia in multiciliated epithelial cells” (Centre National de la Recherche Scientifique, priority 2009, dated 2015).
